This note sets out measurements from US10676485B2, “Macrocyclic MCL-1 inhibitors and methods of use” (AbbVie Inc., priority 2017, dated 2020).

One experiment deals with GST-MCL-1 (Homo sapiens (Human), UniProt Q07820). The experiment is described as follows: TR-FRET MCL-1 binding assay (competition with probe F-Bak). The settings on record: for Ki: read-out: MCL-1 Binding Ki (nM, 10% HS), in the presence of 10% HS; for pKi: without HS, read-out: MCL-1 Binding Ki. Put shortly:
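Compounds as 11 three-fold dilutions from 25 μM with GST-MCL-1, F-Bak probe and Tb-anti-His antibody, 2 h at room temperature. TR-FRET at 340 nm excitation, 520/525 nm (F-Bak) and 495/510 nm (Tb) emission. Run without human serum and with 10% HS.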
(In general: TR-FRET usually uses a lanthanide donor and a delayed reading to cut background.)

Experiment [1] relates to AMO-1 human multiple myeloma tumor cell line. The experiment is described as follows: AMO-1 cell viability assay (CellTiter-Glo). In kind it is cell-based. The settings on record: AMO1, read-out: AMO-1 Viability IC50 (μM), 10% FBS, 24 hours of compound treatment.
Description: In one exemplary set of conditions, NCI-H929 or AMO-1 (ATCC. Manassas, Va.) were plated 4.000 cells per well in 384-well tissue culture plates (Corning. Corning, N.Y.) in a total volume of 25 μL RPMI tissue culture medium supplemented with 10% fetal bovine serum (Sigma-Aldrich, St. Louis, Mo.) and treated with a 3-fold serial dilution of the compounds of interest with a Labcyte Echo from a final concentration of 10 μM to 0.0005 μM. Each concentration was tested in duplicate at least 3 independent times. A luminescent signal proportional to the number of viable cells following 24 hours of compound treatment was determined using the CellTiter-Glo® Luminescent Cell Viability Assay according to the manufacturer's recommendations (Promega Corp., Madison, Wis.). The plates were read in a Perkin Elmer Envision using a Luminescence protocol. To generate dose response curves the data is normalized to percent viability by setting the averages of the staurosporine (10 uM) and DMSO only control wells to 0% and (00)% viability respectively. The IC50 values for the compounds are generated by fitting the normalized data with Accelrys Assay Explorer 3.3 to a sigmoidal curve model using linear regression.
Experiment [2] relates to NCI-H929 human multiple myeloma tumor cell line. The experiment is described as follows: NCI-H929 cell viability assay (CellTiter-Glo). The experiment is classed as cell-based. Particulars: NCI-H929, read-out: H929 Viability IC50 (μM), 10% FBS, 24 hours of compound treatment. Background: In ATP-based viability assays light output follows the ATP content of the culture.
The test system of a further experiment is AMO-1 xenograft. The experiment is described as follows: AMO-1 xenograft model of multiple myeloma. The experiment is classed as in vivo. Particulars: Mus musculus, AMO1, 25 mg/kg/day, IP, QDx1, SCID/bg mice; for change in vivo at 25 mg/kg: read-out: TGD (%); for inhibition in vivo at 25 mg/kg: read-out: TGImax (%). As to the method: Tumors were size matched at approximately 200 mm^3. […] Tumor volume was estimated two to three times weekly. […] Mice were euthanized when tumor volume reached 3,000 mm3 or skin ulcerations occurred. Eight mice were housed per cage. Food and water were available ad libitum.
Tumor growth inhibition is calculated by 100*(1−Tv/Cv) where Tv and Cv are the mean tumor volumes of the treated and control groups, respectively.

pKi: −log10 of the molar value. Like-named read-outs stand apart in the source and are kept apart here.

Chain of GST-MCL-1 (Q07820 whole entry): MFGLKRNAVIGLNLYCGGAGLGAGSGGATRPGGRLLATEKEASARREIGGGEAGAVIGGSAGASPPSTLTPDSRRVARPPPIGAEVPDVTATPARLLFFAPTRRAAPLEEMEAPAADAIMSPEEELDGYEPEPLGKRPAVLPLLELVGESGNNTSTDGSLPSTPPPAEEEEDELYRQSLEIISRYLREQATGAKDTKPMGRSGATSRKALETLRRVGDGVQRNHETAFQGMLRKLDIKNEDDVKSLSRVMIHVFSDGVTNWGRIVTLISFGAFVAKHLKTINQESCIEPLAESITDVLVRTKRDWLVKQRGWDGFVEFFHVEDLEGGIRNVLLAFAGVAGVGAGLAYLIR

Take `Cc1c(Cl)c2c(Cl)c(C)c1-c1c(-c3ccc(F)cc3)sc3ncnc(c13)O[C@@H](C(=O)O)Cc1cc(ccc1OCc1ccnc(-c3ccc(OC[C@@H]4COCCO4)cc3)n1)OC[C@@H](CN1CCN(C)CC1)O2` [Example 7, (7R,16R)-19,23-dichloro-10-{[2-(4-{[(2S)-1,4-dioxan-2-yl]methoxy}phenyl)pyrimidin-4-yl]methoxy}-1-(4-fluorophenyl)-20,22-dimethyl-16-[(4-methylpiperazin-1-yl)methyl]-7,8,15,16-tetrahydro-18,21-etheno-13,9-(metheno)-6,14,17-trioxa-2-thia-3,5-diazacyclononadeca[1,2,3-cd]indene-7-carboxylic acid]: on GST-MCL-1, the Ki amounted to 0.92 nM and the negative logarithm of the Ki (pKi) is 10.44. In experiment [1], the IC50 was 0.000171 µM. The half-maximal inhibitory concentration (IC50) in experiment [2] was 0.000406 µM. In the experiment with AMO-1 xenograft, the change in vivo at 25 mg/kg was 477% and the inhibition in vivo at 25 mg/kg is 99%.

For `Cc1c(Cl)c2c(Cl)c(C)c1-c1c(-c3ccc(F)cc3)sc3ncnc(c13)O[C@@H](C(=O)O)Cc1cc(ccc1OCc1ccnc(-c3ccccc3OCC3COC(C)(C)O3)n1)OC[C@@H](CN1CCN(C)CC1)O2` (stereo in doubt) [Example 3, (7R,16R)-19,23-dichloro-10-{[2-(2-{[(4R)-2,2-dimethyl-1,3-dioxolan-4-yl]methoxy}phenyl)pyrimidin-4-yl]methoxy}-1-(4-fluorophenyl)-20,22-dimethyl-16-[(4-methylpiperazin-1-yl)methyl]-7,8,15,16-tetrahydro-18,21-etheno-13,9-(metheno)-6,14,17-trioxa-2-thia-3,5-diazacyclononadeca[1,2,3-cd]indene-7-carboxylic acid], on GST-MCL-1, the Ki is 0.365 nM and the negative-log Ki (pKi) was 10.48. In addition, the IC50 in experiment [1] is 0.00026 µM. The 50% inhibitory concentration (IC50) in experiment [2] was found to be 0.0037 µM. In addition, in the experiment with AMO-1 xenograft, the change in vivo at 25 mg/kg was found to be 58% and the inhibition in vivo at 25 mg/kg stood at 75%.

Take `Cc1c(Cl)c2c(Cl)c(C)c1-c1c(-c3ccc(F)cc3)sc3ncnc(c13)O[C@@H](C(=O)O)Cc1cc(ccc1OCc1ccnc(N3CCC(F)(COC[C@@H]4COCCO4)CC3)n1)OC[C@@H](CN1CCN(C)CC1)O2` [Example 8, (7R,16R)-19,23-dichloro-10-({2-[4-({[(2S)-1,4-dioxan-2-yl]methoxy}methyl)-4-fluoropiperidin-1-yl]pyrimidin-4-yl}methoxy)-1-(4-fluorophenyl)-20,22-dimethyl-16-[(4-methylpiperazin-1-yl)methyl]-7,8,15,16-tetrahydro-18,21-etheno-13,9-(metheno)-6,14,17-trioxa-2-thia-3,5-diazacyclononadeca[1,2,3-cd]indene-7-carboxylic acid]: on GST-MCL-1, the inhibition constant Ki amounted to 2.27 nM and the pKi was 9.71. In addition, in experiment [1], the half-inhibitory concentration (IC50) is 0.00086 µM. In addition, the half-maximal inhibitory concentration (IC50) in experiment [2] came out at 0.00176 µM. In the experiment with AMO-1 xenograft, the change in vivo at 25 mg/kg amounted to 46% and the inhibition in vivo at 25 mg/kg was determined as 79%.

For the molecule `Cc1c(Cl)c2c(Cl)c(C)c1-c1c(-c3ccc(F)cc3)sc3ncnc(c13)O[C@@H](C(=O)O)Cc1cc(ccc1OCc1ccnc(-c3ccc(OC[C@H]4COC(C)(C)O4)cc3)n1)OC[C@@H](CN1CCN(C)CC1)O2` [Example 1, (7R,16R)-19,23-dichloro-10-{[2-(4-{[(4S)-2,2-dimethyl-1,3-dioxolan-4-yl]methoxy}phenyl)pyrimidin-4-yl]methoxy}-1-(4-fluorophenyl)-20,22-dimethyl-16-[(4-methylpiperazin-1-yl)methyl]-7,8,15,16-tetrahydro-18,21-etheno-13,9-(metheno)-6,14,17-trioxa-2-thia-3,5-diazacyclononadeca[1,2,3-cd]indene-7-carboxylic acid], at GST-MCL-1, the Ki worked out at 0.582 nM and the negative logarithm of the Ki (pKi) was 10.38. In addition, the IC50 in experiment [1] came out at 0.00031 µM. Besides, the concentration for half-maximal inhibition (IC50) in experiment [2] stood at 0.00502 µM. Further, in the experiment with AMO-1 xenograft, the change in vivo at 25 mg/kg was found to be 133% and the inhibition in vivo at 25 mg/kg turned out to be 95%.

In general, Ki refers to the equilibrium dissociation constant of an inhibitor or competing ligand from its target. The term pKi denotes the negative decadic logarithm of the Ki, by convention in mol/L. The term IC50 denotes the concentration at which inhibition is half-maximal.
